The record followed here is patent US6825192B1, “Heterodiazinone derivatives” (Eisai Co., Ltd., priority 1999, dated 2004).

Counter-ions that a name gives are not always drawn.

The subject of the test is AMPA receptor. Put plainly: Inhibitory action on AMPA-inducing inflow of calcium into nerve cells (Fura2-AM). The format is cell-based. The conditions noted are these: rat cerebral cortex nerve cells on astrocytes, 1 μM MK-801, stimulated by 2 μM AMPA, fluorescence 340/380 nm. As to the method:
The cerebral cortex was excised from the brain of a rat on day 18 after birth and treated with trypsin and DNase, whereby the cells were dispersed. The cells were allowed to float on DMEM containing 10% serum, inoculated into a culture bottle, and their astrocytes were grown. The astrocytes were re-dispersed with trypsin and inoculated onto each well on a 96-well plate. After it was confirmed that the bottom of each well was completely covered with the astrocytes after culture for 1 week, cerebral cortex nerve cells dispersed in the same manner as above were inoculated thereon. After 24 hours, the medium was exchanged with fresh one, and after culture for further 1 week, the medium was exchanged with a medium containing 1 μM MK-801.
The inflow of calcium into the cells was measured using Fura2-AM that is a calcium-sensitive fluorescent pigment. By treating the cells with a Fura2-AM-containing medium for 1 hour, Fura2-AM was incorporated into the cells, and the medium was exchanged with a Tyrode solution containing 1 μM MK-801. After a test compound was added, the cells were stimulated by 2 μM AMPA. The change in the amount of calcium flowing into the cells was measured as a change in the fluorescence intensity at wavelengths of 340/380 nm. The effect of a test compound was evaluated where the reaction caused by AMPA added to the Tyrode solution free of the test compound was used as the control.
Broadly, the IC50 is the midpoint of a concentration-inhibition curve. Consider `CN(C)c1ccccc1C1=NN(c2ccccc2)C(=O)CO1` [Example 91, 2-(2-Dimethylaminophenyl)-4-phenyl-4H-1,3,4-oxadiazine-5(6H)-one], for which the IC50 turned out to be 19.1 µM.

Take `O=C1COC(c2ccccc2[N+](=O)[O-])=NN1c1ccccc1` [Example 20, 2-(2-Nitrophenyl)-4-phenyl-4H-1,3,4-oxadiazine-5(6H)-one]: the IC50 was found to be 28.2 µM.

On to `CC(c1ccccn1)N1N=C(c2ccccc2)OCC1=O` (centres unmarked) [Example 87, 2-Phenyl-4-[1-(2-pyridyl)ethyl]-4H-1,3,4-oxadiazine-5(6H)-one hydrochloride], for which the IC50 is 25.4 µM.

As for `O=C1COC(c2ccccc2)=NN1c1c(Cl)cccc1Cl` [Example 101, 2-Phenyl-4-(2,6-dichlorophenyl)-4H-1,3,4-oxadiazine-5(6)-one], the half-inhibitory concentration (IC50) was 3.4 µM.

Regarding `O=C1COC(c2ccnc(Cl)c2)=NN1c1ccccc1` [Example 12, 2-(2-Chloro-4-pyridyl)-4-phenyl-4H-1,3,4-oxadiazine-5(6H)-one hydrochloride], the half-inhibitory concentration (IC50) is 42.8 µM.

As for `O=C1COC(c2ccccc2)=NN1C1CCN(Cc2ccccc2)CC1` [Example 86, 2-Phenyl-4-(1-benzyl-4-piperidyl)-4H-1,3,4-oxadiazine-5(6H)-one hydrochloride], the IC50 was 16.9 µM.

For the compound `O=C1COC(c2ccccc2)=NN1C1CCOCC1` [Example 80, 2-Phenyl-4-(tetrahydro-4H-pyran-4-yl)-4H-1,3,4-oxadiazine-5(6H)-one], the IC50 is 62 µM.

In the case of `O=C1COC(c2ccccn2)=NN1c1ccccc1F` [Example 34, 2-(2-Pyridyl)-4-(2-fluorophenyl)-4H-1,3,4-oxadiazine-5(6H)-one], the IC50 was found to be 9.21 µM.

For `O=C1COC(c2ccccn2)=NN1c1ccc(F)cc1F` [Example 10, 2-(2-Pyridyl)-4-(2,4-difluorophenyl)-4H-1,3,4-oxadiazine-5(6H)-one hydrochloride], the IC50 worked out at 44.2 µM.

Consider `O=C1COC(c2ccccc2OCCN2CCOCC2)=NN1c1ccc(F)cc1` [Example 70, 2-{2-[2-(4-Morpholinyl)ethoxy]phenyl}-4-(4-fluorophenyl)-4H-1,3,4-oxadiazine-5(6H)-one hydrochloride], for which the IC50 turned out to be 27.2 µM.

Regarding `O=C1COC(c2ccccc2OCCN2CCOCC2)=NN1c1ccccc1F` [Example 67, 2-{2-[2-(4-Morpholinyl)ethoxy]phenyl}-4-(2-fluorophenyl)-4H-1,3,4-oxadiazine-5(6H)-one hydrochloride], the IC50 was 6.62 µM.

For the compound `O=C1COC(c2ccccc2)=NN1c1ccccc1Br` [Example 30, 2-Phenyl-4-(2-bromophenyl)-4H-1,3,4-oxadiazine-5(6H)-one], the IC50 was determined as 1.73 µM.

Regarding `COc1ccccc1N1N=C(c2ccccn2)OCC1=O` [Example 35, 2-(2-Pyridyl)-4-(2-methoxyphenyl)-4H-1,3,4-oxadiazine-5(6H)-one], the IC50 stood at 42.7 µM.

As for `COc1ccccc1C1=NN(c2ccccc2Br)C(=O)CO1` [Example 17, 2-(2-Methoxyphenyl)-4-(2-bromophenyl)-4H-1,3,4-oxadiazine-5(6H)-one], the IC50 stood at 5.83 µM.

As to `N#Cc1cccnc1N1N=C(c2ccccc2)OCC1=O` [Example 40, 2-Phenyl-4-(3-cyano-2-pyridyl)-4H-1,3,4-oxadiazine-5(6H)-one hydrochloride], the IC50 came out at 34.8 µM.

For the compound `O=C1COC(c2ccccc2O)=NN1c1ccc(F)cc1F` [Example 53, 2-(2-Hydroxyphenyl)-4-(2,4-difluorophenyl)-4H-1,3,4-oxadiazine-5(6H)-one], the IC50 was found to be 1.92 µM.

`O=C1COC(c2ccccn2)=NN1C1CCCCC1` [Example 11, 2-(2-Pyridyl)-4-cyclohexyl-4H-1,3,4-oxadiazine-5(6H)-one hydrochloride]: the IC50 was determined as 69 µM.

As to `O=C1COC(c2cccnc2)=NN1c1ccccc1` [Example 29, 2-(3-Pyridyl)-4-phenyl-4H-1,3,4-oxadiazine-5(6H)-one hydrochloride], the IC50 worked out at 43.5 µM.

Turning to `CN(C)CCOc1ccccc1C1=NN(c2ccccc2F)C(=O)CO1` [Example 66, 2-[2-(2-Dimethylaminoethoxy)phenyl]-4-(2-fluorophenyl)-4H-1,3,4-oxadiazine-5(6H)-one hydrochloride], the IC50 worked out at 3.54 µM.

Turning to `COc1ccccc1C1=NN(C2CCCCC2)C(=O)CO1` [Example 28, 2-(2-Methoxyphenyl)-4-cyclohexyl-4H-1,3,4-oxadiazine-5(6H)-one], the IC50 was 25.2 µM.

Take `O=C1COC(c2ccccc2)=NN1c1cccnc1` [Example 39, 2-Phenyl-4-(3-pyridyl)-4H-1,3,4-oxadiazine-5(6H)-one hydrochloride]: the IC50 was determined as 51.4 µM.

`O=C1COC(c2ccccc2)=NN1c1ccsc1` [Example 44, 2-Phenyl-4-(3-thienyl)-4H-1,3,4-oxadiazine-5(6H)-one]: the IC50 was 22.7 µM.

Regarding `O=C(Nc1ccccn1)C1=NN(c2ccccc2)C(=O)CO1` [Example 95, N-(2-Pyridyl)-[4-phenyl-4H-1,3,4-oxadiazine-5(6H)-one-2-yl]carboxamide hydrochloride], the IC50 is 48.2 µM.

As for `O=C1COC(c2ccccc2OCc2ccncc2)=NN1c1ccccc1` [Example 55, 2-[2-(4-Pyridyl)methoxyphenyl]-4-phenyl-4H-1,3,4-oxadiazine-5(6H)-one], the IC50 came out at 10.5 µM.

As to `CN(C)CCCOc1ccccc1C1=NN(c2ccccc2)C(=O)CO1` [Example 62, 2-[2-(3-Dimethylaminopropoxy)phenyl]-4-phenyl-4H-1,3,4-oxadiazine-5(6H)-one hydrochloride], the IC50 is 25.1 µM.

Turning to `O=C1COC(c2ccccc2OCCCN2CCCCC2)=NN1c1ccccc1` [Example 63, 2-{2-[3-(1-Piperidinyl)propoxy]phenyl}-4-phenyl-4H-1,3,4-oxadiazine-5(6H)-one hydrochloride], the IC50 stood at 24.7 µM.

With `O=C1CSC(c2ccccc2)=NN1c1ccccc1` [Example 4, 2,4-Diphenyl-4H-1,3,4-thiadiazine-5(6H)-one], the IC50 was 12 µM.

For `O=C1COC(c2ccccc2)=NN1c1ccccc1CO` [Example 41, 2-Phenyl-4-(2-hydroxymethylphenyl)-4H-1,3,4-oxadiazine-5(6H)-one], the IC50 stood at 53.3 µM.

On to `O=C1COC(c2ccccc2)=NN1c1ccccc1Cl` [Example 100, 2-Phenyl-4-(2-chlorophenyl)-4H-1,3,4-oxadiazine-5(6)-one], for which the IC50 was determined as 0.8 µM.

As to `O=C1COC(c2ccc[nH]2)=NN1c1ccccc1` [Example 6, 2-(2-Pyrrolyl)-4-phenyl-4H-1,3,4-oxadiazine-5(6H)-one], the IC50 was found to be 48 µM.

As for `CNCCOc1ccccc1C1=NN(c2ccccc2Br)C(=O)CO1` [Example 104, 2-[2-(Methylamino)ethoxyphenyl]-4-(2-bromophenyl)-4H-1,3,4-oxadiazine-5(6H)-one], the IC50 was found to be 2.7 µM.

In the case of `O=C1COC(c2ccccc2OCCN2CCOCC2)=NN1c1ccc(F)cc1F` [Example 71, 2-{2-[2-(4-Morpholinyl)ethoxy]phenyl}-4-(2,4-difluorophenyl)-4H-1,3,4-oxadiazine-5(6H)-one hydrochloride], the IC50 was found to be 21 µM.

Take `COc1ccccc1C1=NN(c2ccccc2F)C(=O)CO1` [Example 26, 2-(2-Methoxyphenyl)-4-(2-fluorophenyl)-4H-1,3,4-oxadiazine-5(6H)-one]: the IC50 is 10.8 µM.

Turning to `O=C1COC(c2ccccc2)=NN1c1cccs1` [Example 43, 2-Phenyl-4-(2-thienyl)-4H-1,3,4-oxadiazine-5(6H)-one], the concentration for half-maximal inhibition (IC50) is 25.3 µM.

For the compound `O=C1COC(C2CCCCC2)=NN1c1ccccc1` [Example 22, 2-Cyclohexyl-4-phenyl-4H-1,3,4-oxadiazine-5(6H)-one], the IC50 is 67.3 µM.

For `O=C1COC(c2ccccc2O)=NN1c1ccccc1F` [Example 51, 2-(2-Hydroxyphenyl)-4-(2-fluorophenyl)-4H-1,3,4-oxadiazine-5(6H)-one], the IC50 worked out at 1.06 µM.

On to `O=C1COC(/C=C/c2cccnc2)=NN1c1ccccc1` [Example 16, 2-[2-(3-Pyridyl)vinyl]-4-phenyl-4H-1,3,4-oxadiazine-5(6H)-one], for which the IC50 stood at 24.9 µM.

Turning to `N#Cc1ccccc1N1N=C(c2ccccn2)OCC1=O` [Example 106, 2-(2-Pyridyl)-4-(2-cyanophenyl)-4H-1,3,4-oxadiazine-5(6H)-one], the IC50 is 7.3 µM.

`O=C1COC(c2ccccc2O)=NN1c1ccccc1Br` [Example 48, 2-(2-hydroxyphenyl)-4-(2-bromophenyl)-4H-1,3,4-oxadiazine-5(6H)-one]: the IC50 came out at 1.29 µM.

For `N#Cc1ncccc1N1N=C(c2ccccc2)OCC1=O` [Example 42, 2-Phenyl-4-(2-cyano-3-pyridyl)-4H-1,3,4-oxadiazine-5(6H)-one hydrochloride], the IC50 is 3.13 µM.

Consider `O=C1COC(c2cccs2)=NN1c1ccccc1` [Example 31, 2-(2-Thienyl)-4-phenyl-4H-1,3,4-oxadiazine-5(6H)-one], for which the IC50 worked out at 8.3 µM.

`O=C1COC(c2ccccc2O)=NN1c1ccccc1` [Example 49, 2-(2-Hydroxyphenyl)-4-phenyl-4H-1,3,4-oxadiazine-5(6H)-one]: the IC50 was 2.7 µM.

`O=C1COC(c2ccccn2)=NN1c1ccccc1Br` [Example 33, 2-(2-Pyridyl)-4-(2-bromophenyl)-4H-1,3,4-oxadiazine-5(6H)-one]: the IC50 stood at 4.28 µM.

Turning to `CC(c1ccncc1)N1N=C(c2ccccc2)OCC1=O` (centres unmarked) [Example 89, 2-Phenyl-4-[1-(4-pyridyl)ethyl]-4H-1,3,4-oxadiazine-5(6H)-one oxalate], the IC50 came out at 54 µM.
